Data published in ChEMBL document CHEMBL1136863, “Identification and SAR of squarate inhibitors of mitogen activated protein kinase-activated protein kinase 2 (MK-2)” (Bioorg Med Chem, 2009).

How the values were obtained:
[1] = biological target: Proto-oncogene tyrosine-protein kinase Src (Homo sapiens, UniProt P12931); test: Inhibition of SRC
[2] = biological target: Tyrosine-protein kinase Fyn (Homo sapiens, UniProt P06241); test: Inhibition of FYN
[3] = biological target: Cytochrome P450 3A4 (Homo sapiens, UniProt P08684); test: Inhibition of CYP3A4; type: ADME
Cytochrome P450 3A4, sequence (P08684 whole entry): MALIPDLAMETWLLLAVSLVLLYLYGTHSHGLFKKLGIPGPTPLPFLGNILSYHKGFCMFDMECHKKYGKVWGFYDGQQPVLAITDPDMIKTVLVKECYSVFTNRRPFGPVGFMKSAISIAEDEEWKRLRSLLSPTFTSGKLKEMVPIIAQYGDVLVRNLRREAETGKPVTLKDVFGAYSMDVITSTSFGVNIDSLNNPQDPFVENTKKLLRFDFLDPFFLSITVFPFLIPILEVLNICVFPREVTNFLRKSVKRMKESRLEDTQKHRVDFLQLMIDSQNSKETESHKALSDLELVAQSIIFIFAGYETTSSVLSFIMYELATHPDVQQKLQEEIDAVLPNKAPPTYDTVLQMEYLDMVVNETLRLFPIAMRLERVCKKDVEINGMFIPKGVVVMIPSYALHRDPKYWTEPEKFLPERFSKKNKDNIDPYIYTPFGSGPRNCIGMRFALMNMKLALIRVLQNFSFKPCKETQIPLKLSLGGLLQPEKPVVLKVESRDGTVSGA

[4] = biological target: Cytochrome P450 2C9 (Homo sapiens, UniProt P11712); test: Inhibition of CYP2C9; type: ADME
[5] = biological target: Protein kinase C alpha type (Homo sapiens, UniProt P17252); test: Inhibition of PKCalpha
[6] = biological target: Mitogen-activated protein kinase 14 (Homo sapiens, UniProt Q16539); test: Inhibition of p38alpha
Mitogen-activated protein kinase 14, sequence (Q16539 whole entry): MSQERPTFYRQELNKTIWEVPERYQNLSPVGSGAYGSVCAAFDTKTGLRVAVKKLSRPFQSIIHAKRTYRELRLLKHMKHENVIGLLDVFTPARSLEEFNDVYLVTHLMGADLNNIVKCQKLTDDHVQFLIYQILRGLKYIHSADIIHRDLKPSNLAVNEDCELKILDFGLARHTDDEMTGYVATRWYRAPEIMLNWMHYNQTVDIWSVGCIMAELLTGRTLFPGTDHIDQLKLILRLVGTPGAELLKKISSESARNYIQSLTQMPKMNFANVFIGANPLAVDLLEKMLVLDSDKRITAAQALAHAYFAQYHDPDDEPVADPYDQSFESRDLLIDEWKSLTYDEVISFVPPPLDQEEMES

[7] = biological target: Ribosomal protein S6 kinase alpha-1 (Homo sapiens, UniProt Q15418); test: Inhibition of RSK1
Ribosomal protein S6 kinase alpha-1, sequence (Q15418 whole entry): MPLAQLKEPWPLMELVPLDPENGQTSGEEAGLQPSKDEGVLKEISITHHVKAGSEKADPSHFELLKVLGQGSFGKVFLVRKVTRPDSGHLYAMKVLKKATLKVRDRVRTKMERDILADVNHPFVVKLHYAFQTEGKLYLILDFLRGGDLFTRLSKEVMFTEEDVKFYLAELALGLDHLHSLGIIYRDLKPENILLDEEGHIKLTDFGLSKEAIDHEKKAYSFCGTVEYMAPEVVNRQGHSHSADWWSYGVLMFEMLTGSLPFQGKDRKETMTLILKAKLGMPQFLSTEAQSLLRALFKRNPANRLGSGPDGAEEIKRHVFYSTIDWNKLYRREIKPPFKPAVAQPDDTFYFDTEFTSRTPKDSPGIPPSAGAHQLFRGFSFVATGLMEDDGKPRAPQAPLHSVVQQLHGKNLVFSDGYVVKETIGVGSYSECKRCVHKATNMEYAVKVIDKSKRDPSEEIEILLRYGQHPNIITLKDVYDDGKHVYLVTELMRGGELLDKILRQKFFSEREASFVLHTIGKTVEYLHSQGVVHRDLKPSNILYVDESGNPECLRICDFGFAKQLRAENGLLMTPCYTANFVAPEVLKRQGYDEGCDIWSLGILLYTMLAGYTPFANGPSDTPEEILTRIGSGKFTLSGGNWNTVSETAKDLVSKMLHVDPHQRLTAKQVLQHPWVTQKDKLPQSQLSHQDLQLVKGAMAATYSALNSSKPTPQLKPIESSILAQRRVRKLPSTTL

[8] = biological target: Platelet-derived growth factor receptor alpha (Homo sapiens, UniProt P16234); test: Inhibition of PDGFRalpha
[9] = biological target: Cytochrome P450 2D6 (Homo sapiens, UniProt P10635); test: Inhibition of CYP2D6; type: ADME
Cytochrome P450 2D6, sequence (P10635 whole entry): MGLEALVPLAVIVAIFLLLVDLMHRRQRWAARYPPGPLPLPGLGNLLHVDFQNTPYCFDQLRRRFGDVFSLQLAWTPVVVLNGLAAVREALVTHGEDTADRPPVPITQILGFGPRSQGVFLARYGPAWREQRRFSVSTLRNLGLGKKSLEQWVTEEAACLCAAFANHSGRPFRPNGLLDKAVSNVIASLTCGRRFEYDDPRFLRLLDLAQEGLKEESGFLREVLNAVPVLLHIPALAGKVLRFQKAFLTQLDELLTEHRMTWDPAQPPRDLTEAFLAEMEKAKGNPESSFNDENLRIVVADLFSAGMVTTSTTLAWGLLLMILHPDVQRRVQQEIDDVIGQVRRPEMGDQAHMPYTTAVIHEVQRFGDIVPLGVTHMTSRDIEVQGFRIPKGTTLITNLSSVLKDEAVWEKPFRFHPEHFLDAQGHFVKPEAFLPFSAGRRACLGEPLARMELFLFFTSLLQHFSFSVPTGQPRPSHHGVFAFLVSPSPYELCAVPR

[10] = biological target: T1, Inhibitor of nuclear factor kappa-B kinase subunit alpha (Homo sapiens, UniProt O15111); test: Inhibition of IKKalpha
T1 sequence (O15111 whole entry): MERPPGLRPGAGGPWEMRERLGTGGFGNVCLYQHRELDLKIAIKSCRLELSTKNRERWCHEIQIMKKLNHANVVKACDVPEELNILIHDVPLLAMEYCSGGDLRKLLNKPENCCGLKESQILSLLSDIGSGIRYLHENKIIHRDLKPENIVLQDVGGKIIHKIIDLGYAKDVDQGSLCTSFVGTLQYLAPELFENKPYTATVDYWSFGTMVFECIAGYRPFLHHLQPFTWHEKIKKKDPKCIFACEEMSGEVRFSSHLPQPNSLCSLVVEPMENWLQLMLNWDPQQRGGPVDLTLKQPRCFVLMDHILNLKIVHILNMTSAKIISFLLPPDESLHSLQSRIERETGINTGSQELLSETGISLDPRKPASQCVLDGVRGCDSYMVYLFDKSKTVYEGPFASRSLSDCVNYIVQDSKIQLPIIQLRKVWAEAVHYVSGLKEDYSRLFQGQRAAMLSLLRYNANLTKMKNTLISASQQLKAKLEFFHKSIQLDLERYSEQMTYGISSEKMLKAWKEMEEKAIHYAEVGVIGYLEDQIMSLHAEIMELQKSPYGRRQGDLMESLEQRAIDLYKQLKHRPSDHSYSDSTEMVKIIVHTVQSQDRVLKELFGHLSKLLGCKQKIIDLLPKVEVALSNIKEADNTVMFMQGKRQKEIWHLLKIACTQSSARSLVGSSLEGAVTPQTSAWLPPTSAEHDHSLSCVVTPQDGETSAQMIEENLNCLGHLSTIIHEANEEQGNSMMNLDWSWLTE

[11] = system: THP-1; test: Inhibition of LPS-stimulated TNFalpha production in human THP1 cells
[12] = biological target: Mitogen-activated protein kinase 1 (Homo sapiens, UniProt P28482); test: Inhibition of ERK2
[13] = biological target: Casein kinase I isoform gamma-1 (Homo sapiens, UniProt Q9HCP0); test: Inhibition of CK1-gamma1
[14] = biological target: Aurora kinase B (Homo sapiens, UniProt Q96GD4); test: Inhibition of Aurora B
Aurora kinase B, sequence (Q96GD4 whole entry): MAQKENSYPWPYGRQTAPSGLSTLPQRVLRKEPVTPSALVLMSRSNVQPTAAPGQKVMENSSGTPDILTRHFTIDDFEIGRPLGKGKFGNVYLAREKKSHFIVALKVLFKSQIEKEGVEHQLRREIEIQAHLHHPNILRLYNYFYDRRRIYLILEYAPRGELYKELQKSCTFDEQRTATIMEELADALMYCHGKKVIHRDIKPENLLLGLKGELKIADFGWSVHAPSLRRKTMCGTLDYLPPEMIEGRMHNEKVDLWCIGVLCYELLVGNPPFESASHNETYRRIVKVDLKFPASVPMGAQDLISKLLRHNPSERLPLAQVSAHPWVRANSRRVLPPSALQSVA

[15] = biological target: MAP kinase-activated protein kinase 2 (Homo sapiens, UniProt P49137)
MAP kinase-activated protein kinase 2, sequence (P49137 whole entry): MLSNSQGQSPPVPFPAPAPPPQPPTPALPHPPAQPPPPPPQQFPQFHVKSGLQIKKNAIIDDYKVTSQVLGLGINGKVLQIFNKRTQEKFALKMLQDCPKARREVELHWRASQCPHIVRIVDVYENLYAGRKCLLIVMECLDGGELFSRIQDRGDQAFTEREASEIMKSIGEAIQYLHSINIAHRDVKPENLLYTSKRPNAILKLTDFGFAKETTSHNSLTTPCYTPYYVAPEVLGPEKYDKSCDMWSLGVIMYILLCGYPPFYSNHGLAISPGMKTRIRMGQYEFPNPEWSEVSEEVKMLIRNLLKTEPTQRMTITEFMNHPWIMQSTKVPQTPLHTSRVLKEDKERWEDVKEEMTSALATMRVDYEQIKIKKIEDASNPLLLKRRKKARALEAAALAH
Description: Inhibition of human recombinant MK2

[16] = biological target: Rho-associated protein kinase 1 (Homo sapiens, UniProt Q13464); test: Inhibition of ROCK1
Rho-associated protein kinase 1, sequence (Q13464 whole entry): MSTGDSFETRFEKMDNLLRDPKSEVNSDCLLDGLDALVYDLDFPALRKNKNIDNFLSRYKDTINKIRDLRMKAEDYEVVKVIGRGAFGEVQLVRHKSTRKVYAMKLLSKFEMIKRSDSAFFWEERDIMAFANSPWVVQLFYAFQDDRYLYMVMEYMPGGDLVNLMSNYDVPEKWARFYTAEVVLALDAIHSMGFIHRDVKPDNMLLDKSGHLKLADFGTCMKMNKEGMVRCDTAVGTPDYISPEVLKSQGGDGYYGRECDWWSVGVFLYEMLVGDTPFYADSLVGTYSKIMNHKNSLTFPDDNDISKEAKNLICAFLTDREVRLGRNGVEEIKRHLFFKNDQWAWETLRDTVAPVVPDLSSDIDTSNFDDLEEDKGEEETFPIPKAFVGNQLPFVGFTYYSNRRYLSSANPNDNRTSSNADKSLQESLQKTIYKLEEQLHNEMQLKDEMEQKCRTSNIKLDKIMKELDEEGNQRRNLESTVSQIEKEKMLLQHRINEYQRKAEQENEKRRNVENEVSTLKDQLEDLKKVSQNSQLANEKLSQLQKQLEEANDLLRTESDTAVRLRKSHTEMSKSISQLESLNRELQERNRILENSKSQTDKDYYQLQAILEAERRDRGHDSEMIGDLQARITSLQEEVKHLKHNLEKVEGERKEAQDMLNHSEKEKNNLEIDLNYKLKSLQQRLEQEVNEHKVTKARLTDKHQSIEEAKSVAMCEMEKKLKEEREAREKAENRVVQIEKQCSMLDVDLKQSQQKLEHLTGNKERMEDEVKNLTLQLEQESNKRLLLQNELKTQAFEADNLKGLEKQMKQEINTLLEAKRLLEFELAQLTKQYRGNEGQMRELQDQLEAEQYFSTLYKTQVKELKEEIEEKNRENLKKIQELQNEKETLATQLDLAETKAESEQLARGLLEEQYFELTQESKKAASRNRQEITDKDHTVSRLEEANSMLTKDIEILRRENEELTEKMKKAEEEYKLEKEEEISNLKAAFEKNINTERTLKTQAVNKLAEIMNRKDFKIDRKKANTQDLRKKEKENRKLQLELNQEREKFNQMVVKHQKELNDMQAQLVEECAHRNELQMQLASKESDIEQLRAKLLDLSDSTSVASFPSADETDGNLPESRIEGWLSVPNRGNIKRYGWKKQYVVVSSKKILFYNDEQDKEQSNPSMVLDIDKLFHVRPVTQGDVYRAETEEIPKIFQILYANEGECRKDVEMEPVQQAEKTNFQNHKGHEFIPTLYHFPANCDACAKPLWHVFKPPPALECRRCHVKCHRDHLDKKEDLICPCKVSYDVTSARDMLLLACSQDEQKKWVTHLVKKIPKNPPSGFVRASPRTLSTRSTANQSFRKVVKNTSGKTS

[17] = biological target: CYP3A4 (Homo sapiens, UniProt P08684); test: Inhibition of CYP3A4 at 3 uM; type: ADME
CYP3A4, sequence (P08684 whole entry): as the sequence (P08684 whole entry) above

[18] = biological target: CYP2C9 (Homo sapiens, UniProt P11712); test: Inhibition of CYP2C9 at 3 uM; type: ADME
[19] = biological target: CYP2D6 (Homo sapiens, UniProt P10635); test: Inhibition of CYP2D6 at 3 uM; type: ADME
CYP2D6, sequence (P10635 whole entry): as the sequence (P10635 whole entry) above

Tyrosine-protein kinase Fyn, sequence (P06241 whole entry): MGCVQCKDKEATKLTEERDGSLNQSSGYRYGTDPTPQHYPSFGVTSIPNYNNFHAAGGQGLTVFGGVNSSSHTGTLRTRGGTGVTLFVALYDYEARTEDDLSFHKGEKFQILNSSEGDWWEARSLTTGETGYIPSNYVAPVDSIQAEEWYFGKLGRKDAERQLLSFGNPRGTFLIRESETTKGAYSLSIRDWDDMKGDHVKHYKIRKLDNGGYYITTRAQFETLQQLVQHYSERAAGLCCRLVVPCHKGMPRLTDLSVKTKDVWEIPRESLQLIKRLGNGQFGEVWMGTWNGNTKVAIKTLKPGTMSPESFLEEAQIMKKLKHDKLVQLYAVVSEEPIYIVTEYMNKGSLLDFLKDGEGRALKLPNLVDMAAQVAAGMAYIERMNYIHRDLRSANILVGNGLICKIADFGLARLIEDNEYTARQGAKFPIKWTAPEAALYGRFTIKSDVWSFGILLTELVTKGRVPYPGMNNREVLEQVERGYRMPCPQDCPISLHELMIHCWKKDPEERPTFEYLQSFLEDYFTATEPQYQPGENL

| Structure (SMILES) | IC50 [1] [µM] | IC50 [2] [µM] | IC50 [5] [µM] | IC50 [6] [µM] | IC50 [7] [µM] | IC50 [8] [µM] | IC50 [10] [µM] | IC50 [11] [µM] | IC50 [12] [µM] | IC50 [13] [µM] | IC50 [14] [µM] | IC50 [15] [µM] | also measured |
| --- | --- | --- | --- | --- | --- | --- | --- | --- | --- | --- | --- | --- | --- |
| C[C@@H](Nc1c(Nc2ccncc2)c(=O)c1=O)c1ccccc1 | > 50 | > 50 | > 50 | > 50 | 0.81 | 40.5 | > 50 | 10.8 |  |  |  |  | IC50 [3]: 1.3 µM; IC50 [4]: 0.6 µM; IC50 [9]: 3.3 µM |
| NC(=O)C(Nc1c(Nc2ccncc2)c(=O)c1=O)c1ccccc1 (configuration not stated) | > 50 | > 50 |  | > 50 | 0.78 | 44 | > 50 | > 40 | 6.3 | 0.52 | 6 | 4.5 | IC50 [3]: 8.6 µM; IC50 [4]: 5.1 µM; IC50 [9]: > 10 µM |
| CC(Nc1c(Nc2ccncc2)c(=O)c1=O)c1cccc(O)c1 (configuration not stated) |  |  |  |  |  |  |  | 34 |  |  |  |  |  |
| C[C@H](c1ccccc1)N(C)c1c(Nc2ccncc2)c(=O)c1=O |  |  |  |  |  |  |  |  |  |  |  | > 100 |  |
| C[C@@H](Nc1c(N(C)c2ccncc2)c(=O)c1=O)c1ccccc1 |  |  |  |  |  |  |  |  |  |  |  | > 100 |  |
| C[C@@H](Nc1c(Nc2ccnc(-c3ccccc3F)c2)c(=O)c1=O)c1ccccc1 | > 50 | > 50 | > 50 | 21.7 | > 50 | > 50 | > 50 | 2.2 | > 50 | > 50 | > 50 | 5.8 | IC50 [16]: > 50 µM |
| C[C@@H](Nc1c(Nc2ccnc(Cl)c2)c(=O)c1=O)c1ccccc1 |  |  |  |  |  |  |  |  |  |  |  | > 100 |  |
| C[C@@H](Nc1c(Nc2ccnc(Nc3ccncn3)c2)c(=O)c1=O)c1ccccc1 |  |  |  |  |  |  |  | 1.1 |  |  |  |  |  |
| C[C@@H](Nc1c(Nc2ccnc(-c3ccsc3)c2)c(=O)c1=O)c1ccccc1 | > 50 | 15.3 | > 50 | > 50 | > 50 | 36.2 | > 50 |  | > 50 | 11.6 | 10.8 | 5.4 | IC50 [16]: > 50 µM |
| C[C@@H](Nc1c(Nc2cccnc2)c(=O)c1=O)c1ccccc1 |  |  |  |  |  |  |  |  |  |  |  | > 100 | inhibition at 3 µM [17]: 16%; inhibition at 3 µM [18]: 1%; inhibition at 3 µM [19]: 26% |
| NC(=O)C(Nc1c(Nc2ccncc2)c(=O)c1=O)c1cccc(O)c1 (configuration not stated) | > 50 | > 50 | 33.6 | > 50 | 0.29 | 11.1 | > 50 | 17 | 4.2 | 0.16 | 1.4 | 0.39 | IC50 [3]: > 10 µM; IC50 [4]: 6.5 µM; IC50 [9]: > 10 µM; IC50 [16]: 0.06 µM |
| C[C@@H](Nc1c(Nc2ccncn2)c(=O)c1=O)c1ccccc1 |  |  |  |  |  |  |  |  |  |  |  | > 100 |  |
| C[C@@H](Nc1c(Nc2ccnc(-c3ccco3)c2)c(=O)c1=O)c1ccccc1 | > 50 | > 50 | > 50 | > 50 | > 50 | 27.1 | > 50 | 2.1 | 35 | 4.9 | 8.8 | 5.3 | IC50 [16]: > 50 µM |
| C[C@@H](Nc1c(Nc2ccn[nH]2)c(=O)c1=O)c1ccccc1 |  |  |  |  |  |  |  |  |  |  |  | > 100 | IC50 [3]: 40 µM; IC50 [4]: 12 µM |
